{"source": "patent US20220339143A1", "about": "“TAK-925 FOR USE IN TREATING NARCOLEPSY” (Takeda Pharmaceutical Company Limited, priority 2019, published 2022)", "tested_on": "patients with narcolepsy type 1 (NT1)", "assay": "Subjective daytime sleepiness as assessed by Karolinska Sleepiness Scale (KSS), single dose (Cohorts 5, 6, 7)", "assay_type": "in vivo, human", "procedure": "Daytime sleepiness as assessed by the Karolinska Sleepiness Scale (KSS).\nDaytime sleepiness as assessed by KSS at predose and hourly until 11 hours after the start of infusion is presented in Table 13 as summary, in Table 14 as ANOVA and in Table 15 as ANOVA of change from baseline.", "key": {"[1]": {"details": "Cmpd A 5 mg (N = 6), 9 hr after start of infusion"}, "[2]": {"details": "Cmpd A 5 mg (N = 6), 10 hr after start of infusion"}, "[3]": {"details": "Cmpd A 5 mg (N = 6), 11 hr after start of infusion"}, "[4]": {"details": "Cmpd A 11.2 mg (N = 4), 1 hr after start of infusion"}, "[5]": {"details": "Cmpd A 11.2 mg (N = 4), 2 hr after start of infusion"}, "[6]": {"details": "Cmpd A 11.2 mg (N = 4), 3 hr after start of infusion"}, "[7]": {"details": "Cmpd A 11.2 mg (N = 4), 4 hr after start of infusion"}, "[8]": {"details": "Cmpd A 11.2 mg (N = 4), 5 hr after start of infusion"}, "[9]": {"details": "Cmpd A 11.2 mg (N = 4), 6 hr after start of infusion"}, "[10]": {"details": "Cmpd A 11.2 mg (N = 4), 7 hr after start of infusion"}, "[11]": {"details": "Cmpd A 11.2 mg (N = 4), 8 hr after start of infusion"}, "[12]": {"details": "Cmpd A 11.2 mg (N = 4), 9 hr after start of infusion"}, "[13]": {"details": "Cmpd A 11.2 mg (N = 4), 10 hr after start of infusion"}, "[14]": {"details": "Cmpd A 11.2 mg (N = 4), 11 hr after start of infusion"}, "[15]": {"details": "Cmpd A 44.8 mg (N = 4), 1 hr after start of infusion"}, "[16]": {"details": "Cmpd A 44.8 mg (N = 4), 2 hr after start of infusion"}, "[17]": {"details": "Cmpd A 44.8 mg (N = 4), 3 hr after start of infusion"}, "[18]": {"details": "Cmpd A 44.8 mg (N = 4), 4 hr after start of infusion"}, "[19]": {"details": "Cmpd A 44.8 mg (N = 4), 5 hr after start of infusion"}, "[20]": {"details": "Cmpd A 44.8 mg (N = 4), 6 hr after start of infusion"}, "[21]": {"details": "Cmpd A 44.8 mg (N = 4), 7 hr after start of infusion"}, "[22]": {"details": "Cmpd A 44.8 mg (N = 4), 8 hr after start of infusion"}, "[23]": {"details": "Cmpd A 44.8 mg (N = 4), 9 hr after start of infusion"}, "[24]": {"details": "Cmpd A 44.8 mg (N = 4), 10 hr after start of infusion"}, "[25]": {"details": "Cmpd A 44.8 mg (N = 4), 11 hr after start of infusion"}}}
{"smiles": "COC(=O)N1CCC[C@H](NS(C)(=O)=O)[C@@H]1CO[C@H]1CC[C@@H](c2ccccc2)CC1", "note": "[Compound A, methyl (2R,3S)-3-((methylsulfonyl)amino)-2-(((cis-4-phenylcyclohexyl)oxy)methyl)piperidine-1-carboxylate]", "values": [{"measurement": "KSS Observed Value at Visit, Median", "setting": "Cmpd A 5 mg (N = 6), 8 hr after start of infusion", "value": 3.0}, {"measurement": "KSS Change from Baseline, Mean", "setting": "[1]", "value": "−2.5"}, {"measurement": "KSS Change from Baseline, Median", "setting": "[1]", "value": "−2.5"}, {"measurement": "KSS Observed Value at Visit, Mean", "setting": "[1]", "value": 2.5}, {"measurement": "KSS Observed Value at Visit, Median", "setting": "[1]", "value": 2.5}, {"measurement": "KSS Change from Baseline, Mean", "setting": "[2]", "value": "−2.3"}, {"measurement": "KSS Change from Baseline, Median", "setting": "[2]", "value": "−2.5"}, {"measurement": "KSS Observed Value at Visit, Mean", "setting": "[2]", "value": 2.7}, {"measurement": "KSS Observed Value at Visit, Median", "setting": "[2]", "value": 2.0}, {"measurement": "KSS Change from Baseline, Mean", "setting": "[3]", "value": "−1.7"}, {"measurement": "KSS Change from Baseline, Median", "setting": "[3]", "value": "−1.5"}, {"measurement": "KSS Observed Value at Visit, Mean", "setting": "[3]", "value": 3.3}, {"measurement": "KSS Observed Value at Visit, Median", "setting": "[3]", "value": 3.0}, {"measurement": "KSS Change from Baseline, Mean", "setting": "[4]", "value": "−2.0"}, {"measurement": "KSS Change from Baseline, Median", "setting": "[4]", "value": "−1.0"}, {"measurement": "KSS Observed Value at Visit, Mean", "setting": "[4]", "value": 1.8}, {"measurement": "KSS Observed Value at Visit, Median", "setting": "[4]", "value": 1.5}, {"measurement": "KSS Change from Baseline, Mean", "setting": "[5]", "value": "−1.5"}, {"measurement": "KSS Change from Baseline, Median", "setting": "[5]", "value": "−1.0"}, {"measurement": "KSS Observed Value at Visit, Mean", "setting": "[5]", "value": 2.3}, {"measurement": "KSS Observed Value at Visit, Median", "setting": "[5]", "value": 2.0}, {"measurement": "KSS Change from Baseline, Mean", "setting": "[6]", "value": "−1.3"}, {"measurement": "KSS Change from Baseline, Median", "setting": "[6]", "value": "−1.0"}, {"measurement": "KSS Observed Value at Visit, Mean", "setting": "[6]", "value": 2.5}, {"measurement": "KSS Observed Value at Visit, Median", "setting": "[6]", "value": 3.0}, {"measurement": "KSS Change from Baseline, Mean", "setting": "[7]", "value": "−1.8"}, {"measurement": "KSS Change from Baseline, Median", "setting": "[7]", "value": "−1.0"}, {"measurement": "KSS Observed Value at Visit, Mean", "setting": "[7]", "value": 2.0}, {"measurement": "KSS Observed Value at Visit, Median", "setting": "[7]", "value": 2.0}, {"measurement": "KSS Change from Baseline, Mean", "setting": "[8]", "value": "−1.8"}, {"measurement": "KSS Change from Baseline, Median", "setting": "[8]", "value": "−1.0"}, {"measurement": "KSS Observed Value at Visit, Mean", "setting": "[8]", "value": 2.0}, {"measurement": "KSS Observed Value at Visit, Median", "setting": "[8]", "value": 2.0}, {"measurement": "KSS Change from Baseline, Mean", "setting": "[9]", "value": "−1.5"}, {"measurement": "KSS Change from Baseline, Median", "setting": "[9]", "value": "−0.5"}, {"measurement": "KSS Observed Value at Visit, Mean", "setting": "[9]", "value": 2.3}, {"measurement": "KSS Observed Value at Visit, Median", "setting": "[9]", "value": 2.0}, {"measurement": "KSS Change from Baseline, Mean", "setting": "[10]", "value": "−1.0"}, {"measurement": "KSS Change from Baseline, Median", "setting": "[10]", "value": "−0.5"}, {"measurement": "KSS Observed Value at Visit, Mean", "setting": "[10]", "value": 2.8}, {"measurement": "KSS Observed Value at Visit, Median", "setting": "[10]", "value": 3.0}, {"measurement": "KSS Change from Baseline, Mean", "setting": "[11]", "value": "−1.5"}, {"measurement": "KSS Change from Baseline, Median", "setting": "[11]", "value": "−1.0"}, {"measurement": "KSS Observed Value at Visit, Mean", "setting": "[11]", "value": 2.3}, {"measurement": "KSS Observed Value at Visit, Median", "setting": "[11]", "value": 2.5}, {"measurement": "KSS Change from Baseline, Mean", "setting": "[12]", "value": "−1.3"}, {"measurement": "KSS Change from Baseline, Median", "setting": "[12]", "value": "−0.5"}, {"measurement": "KSS Observed Value at Visit, Mean", "setting": "[12]", "value": 2.5}, {"measurement": "KSS Observed Value at Visit, Median", "setting": "[12]", "value": 2.5}, {"measurement": "KSS Change from Baseline, Mean", "setting": "[13]", "value": 1.3}, {"measurement": "KSS Change from Baseline, Median", "setting": "[13]", "value": 2.5}, {"measurement": "KSS Observed Value at Visit, Mean", "setting": "[13]", "value": 5.0}, {"measurement": "KSS Observed Value at Visit, Median", "setting": "[13]", "value": 5.5}, {"measurement": "KSS Change from Baseline, Mean", "setting": "[14]", "value": 0.5}, {"measurement": "KSS Change from Baseline, Median", "setting": "[14]", "value": 1.0}, {"measurement": "KSS Observed Value at Visit, Mean", "setting": "[14]", "value": 4.3}, {"measurement": "KSS Observed Value at Visit, Median", "setting": "[14]", "value": 4.0}, {"measurement": "KSS Change from Baseline, Mean", "setting": "[15]", "value": "−1.5"}, {"measurement": "KSS Change from Baseline, Median", "setting": "[15]", "value": "−1.5"}, {"measurement": "KSS Observed Value at Visit, Mean", "setting": "[15]", "value": 1.3}, {"measurement": "KSS Observed Value at Visit, Median", "setting": "[15]", "value": 1.0}, {"measurement": "KSS Change from Baseline, Mean", "setting": "[16]", "value": "−1.5"}, {"measurement": "KSS Change from Baseline, Median", "setting": "[16]", "value": "−2.0"}, {"measurement": "KSS Observed Value at Visit, Mean", "setting": "[16]", "value": 1.3}, {"measurement": "KSS Observed Value at Visit, Median", "setting": "[16]", "value": 1.0}, {"measurement": "KSS Change from Baseline, Mean", "setting": "[17]", "value": "−1.0"}, {"measurement": "KSS Change from Baseline, Median", "setting": "[17]", "value": "−1.0"}, {"measurement": "KSS Observed Value at Visit, Mean", "setting": "[17]", "value": 1.8}, {"measurement": "KSS Observed Value at Visit, Median", "setting": "[17]", "value": 1.5}, {"measurement": "KSS Change from Baseline, Mean", "setting": "[18]", "value": "−1.0"}, {"measurement": "KSS Change from Baseline, Median", "setting": "[18]", "value": "−1.0"}, {"measurement": "KSS Observed Value at Visit, Mean", "setting": "[18]", "value": 1.8}, {"measurement": "KSS Observed Value at Visit, Median", "setting": "[18]", "value": 1.5}, {"measurement": "KSS Change from Baseline, Mean", "setting": "[19]", "value": "−1.5"}, {"measurement": "KSS Change from Baseline, Median", "setting": "[19]", "value": "−1.5"}, {"measurement": "KSS Observed Value at Visit, Mean", "setting": "[19]", "value": 1.3}, {"measurement": "KSS Observed Value at Visit, Median", "setting": "[19]", "value": 1.0}, {"measurement": "KSS Change from Baseline, Mean", "setting": "[20]", "value": "−1.3"}, {"measurement": "KSS Change from Baseline, Median", "setting": "[20]", "value": "−1.0"}, {"measurement": "KSS Observed Value at Visit, Mean", "setting": "[20]", "value": 1.5}, {"measurement": "KSS Observed Value at Visit, Median", "setting": "[20]", "value": 1.5}, {"measurement": "KSS Change from Baseline, Mean", "setting": "[21]", "value": "−1.3"}, {"measurement": "KSS Change from Baseline, Median", "setting": "[21]", "value": "−1.0"}, {"measurement": "KSS Observed Value at Visit, Mean", "setting": "[21]", "value": 1.5}, {"measurement": "KSS Observed Value at Visit, Median", "setting": "[21]", "value": 1.5}, {"measurement": "KSS Change from Baseline, Mean", "setting": "[22]", "value": "−0.8"}, {"measurement": "KSS Change from Baseline, Median", "setting": "[22]", "value": "−1.0"}, {"measurement": "KSS Observed Value at Visit, Mean", "setting": "[22]", "value": 2.0}, {"measurement": "KSS Observed Value at Visit, Median", "setting": "[22]", "value": 2.0}, {"measurement": "KSS Change from Baseline, Mean", "setting": "[23]", "value": "−1.3"}, {"measurement": "KSS Change from Baseline, Median", "setting": "[23]", "value": "−1.0"}, {"measurement": "KSS Observed Value at Visit, Mean", "setting": "[23]", "value": 1.5}, {"measurement": "KSS Observed Value at Visit, Median", "setting": "[23]", "value": 1.0}, {"measurement": "KSS Change from Baseline, Mean", "setting": "[24]", "value": "−1.5"}, {"measurement": "KSS Change from Baseline, Median", "setting": "[24]", "value": "−1.5"}, {"measurement": "KSS Observed Value at Visit, Mean", "setting": "[24]", "value": 1.3}, {"measurement": "KSS Observed Value at Visit, Median", "setting": "[24]", "value": 1.0}, {"measurement": "KSS Change from Baseline, Mean", "setting": "[25]", "value": "−1.3"}, {"measurement": "KSS Change from Baseline, Median", "setting": "[25]", "value": "−1.0"}, {"measurement": "KSS Observed Value at Visit, Mean", "setting": "[25]", "value": 1.5}, {"measurement": "KSS Observed Value at Visit, Median", "setting": "[25]", "value": 1.5}, {"measurement": "KSS ratings vs pooled placebo group", "setting": "all time points over 9 hour infusion period", "value": "lower (greater alertness)"}, {"measurement": "mean reduction in KSS from baseline vs placebo", "setting": "single dose, NT1", "value": "greater for Compound A vs placebo"}]}
